From patent publication US7943637B2, “Thienopyridine derivatives and the use thereof as HSP90 modulators” (Merck Patent GmbH, priority 2005, dated 2011)

Biological target: T1, Recombinant human HSP90α (Homo sapiens, UniProt P07900)
T1 construct: host or cells: E. coli
Test: HSP90 radioligand filter binding test, competition with [3H]17AAG
Settings: [3H]17AAG 0.08 μM; HSP90 1.5 μg/assay; 22° C., 30 min; read-out: HSP90 inhibition IC50
From the text: The binding of geldanamycin or 17-allylamino-17-demethoxygeldanamycin (17AAG) to HSP90 and competitive inhibition thereof can be utilised in order to determine the inhibitory activity of the compounds according to the invention (Carreras et al. 2003, Chiosis et al. 2002).
In the specific case, a radioligand filter binding test is used. The radioligand used here is tritium-labelled 17-allylaminogeldanamycin, [3H]17AAG. This filter binding test allows a targeted search for inhibitors which interfere with the ATP binding site.
• Recombinant human HSP90α (E. coli expressed, 95% purity); • [3H]17AAG (17-allylaminogeldanamycin, [allylamino-2,3-^3H. Specific activity: 1.11×10^12 Bq/mmol (Moravek, MT-1717); • HEPES filter buffer (50 mM HEPES, pH 7.0, 5 mM MgCl2, BSA 0.01%) Multiscreen FB (1 μm) filter plate (Millipore, MAFBNOB 50). Method
The 96-well microtitre filter plates are firstly irrigated and coated with 0.1% of polyethylenimine.
The test is carried out under the following conditions: • Reaction temperature 22° C. • Reaction time: 30 min., shaking at 800 rpm • Test volume: 50 μl • Final concentrations: • 50 mM HEPES HCl, pH 7.0, 5 mM MgCl2, 0.01% (w/v) BSA • HSP90:1.5 μg/assay • [3H]17AAG: 0.08 μM.
At the end of the reaction, the supernatant in the filter plate is removed by suction with the aid of a vacuum manifold (Multiscreen Separation System, Millipore), and the filter is washed twice.
The filter plates are then measured in a beta counter (Microbeta, Wallac) with scintillator (Microscint 20, Packard).
“% of control” is determined from the “counts per minutes” values and the IC-50 value of a compound is calculated therefrom.

| Compound | IC50 |
| --- | --- |
| CCOC(=O)CCCCCOc1cc(-c2c(C#N)c(N)nc3sc(C(N)=O)c(N)c23)ccc1OC [Compound A4, 2-aminocarbonyl-3,6-diamino-5-cyano-4-[3-(5-ethoxycarbonylpentyloxy)-4-methoxyphenyl]thieno[2,3-b]pyridine] | 2.5 µM |
| CCOC(=O)CCCOc1cc(-c2c(C#N)c(N)nc3sc(C(N)=O)c(N)c23)ccc1OC [Compound A7c, 2-aminocarbonyl-3,6-diamino-5-cyano-4-[3-(3-ethoxycarbonylpropoxy)-4-methoxyphenyl]thieno[2,3-b]pyridine] | 1.3 µM |
| COc1ccc(-c2c(C#N)c(N)nc3sc(C(N)=O)c(N)c23)cc1OCCCCC(=O)O [Compound A7a, 2-aminocarbonyl-3,6-diamino-5-cyano-4-[3-(4-carboxybutoxy)-4-methoxyphenyl]thieno[2,3-b]pyridine] | 0.65 µM |
| COc1ccc(-c2c(C#N)c(N)nc3sc(C(N)=O)c(N)c23)cc1OCC(N)=O [Compound A30] | 3.3 µM |
| COc1ccc(-c2c(C#N)c(N)nc3sc(C(N)=O)c(N)c23)cc1OCc1ccccc1C [Compound A11] | 1.4 µM |
| CCOC(=O)c1sc2nc(N)c(C#N)c(-c3ccc(OC)c(OC)c3)c2c1N [Compound A9, 2-ethoxycarbonyl-3,6-diamino-5-cyano-4-(3,4-dimethoxyphenyl)thieno[2,3-b]pyridine] | 14 µM |
| CCOC(=O)CCCCOc1cc(-c2c(C#N)c(N)nc3sc(C(N)=O)c(N)c23)ccc1OC [Compound A7, 2-aminocarbonyl-3,6-diamino-5-cyano-4-[3-(4-ethoxycarbonylbutoxy)-4-methoxyphenyl]thieno[2,3-b]pyridine] | 1.5 µM |
| COc1ccc(-c2c(C#N)c(N)nc3sc(C(N)=O)c(N)c23)cc1OC [Compound A1, 2-aminocarbonyl-3,6-diamino-5-cyano-4-(3,4-dimethoxyphenyl)thieno[2,3-b]pyridine] | 1 µM |

The next lines start with the values.

| IC50 | Compound |
| --- | --- |
| 0.67 µM | COc1ccc(-c2c(C#N)c(N)nc3sc(C(N)=O)c(N)c23)cc1OCc1cccc(OC(F)F)c1 [Compound A693] |
| 0.78 µM | COc1ccc(-c2c(C#N)c(N)nc3sc(C(N)=O)c(N)c23)cc1OCc1cccc(C(F)(F)F)c1 [Compound A21] |
| 0.89 µM | COc1ccc(-c2c(C#N)c(N)nc3sc(C(N)=O)c(N)c23)cc1OCCCCCC(=O)O [Compound A7b, 2-aminocarbonyl-3,6-diamino-5-cyano-4-[3-(5-carboxypentyloxy)-4-methoxyphenyl]thieno[2,3-b]pyridine] |
| 0.74 µM | COc1ccc(-c2c(C#N)c(N)nc3sc(C(N)=O)c(N)c23)cc1OCc1ccc(C(=O)O)cc1 [Compound A689] |
